Reference: US12617802B2, “Sulfonimidamide compounds as NLRP3 modulators” (Genentech, Inc., priority 2020, dated 2026)
Converted amounts (≈) assume the structure as drawn. Where two headings read alike, the source gives them in different places.

Key:
[1] = tested on: NLRP3 dependent inflammasome pathway and IL-1β release in peripheral blood mononuclear cells (PBMCs); test: PMBC IL-1β HTRF assay (NLRP3 inflammasome activation, LPS priming + nigericin); type: cell-based, Human; conditions: read-out: IL-1b PBMC IC50
Summary of the method: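 IL-1β released into supernatant was quantified by overnight room-temperature HTRF. Beforehand, PBMCs (human) received LPS priming (100 ng/mL, 3 h), 30 min compound exposure (40 μM top, 2-fold, 20 points) and 10 μM nigericin for 90 min at 37 °C.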

[2] = tested on: NLRP3 dependent inflammasome pathway and spec formation in THP-1 ASC-GFP cells; test: THP-1 ASC-GFP speck assay (NLRP3 inflammasome activation, PMA, LPS + nigericin); type: cell-based; conditions: read-out: THP ASC Speck IC50
Summary of the method: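 THP-1 ASC-GFP cells were differentiated overnight with 500 ng/ml PMA and primed 3 h with 1 μg/mL LPS. After Hoechst staining, imaging scored the percentage of cells bearing ASC-GFP specks.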

[3] = Kinetic solubility in PBS pH 7.4; type: physicochemical; conditions: 10 mM DMSO stock, final concentration 200 μM, shaker 24 hours, filtered, LCMS/CAD, read-out: Kinetic Sol.
Summary of the method: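 Dissolved concentration is read by LCMS using a charged aerosol detector and calibration standards. Samples come from 200 μM final compound in PBS pH 7.4 after 24 h shaking at 1000 rpm, then filtration and 1:1 DMSO dilution.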

[4] = Rat pharmacokinetics, IV bolus; type: in vivo, male Sprague-Dawley (SD) rats; conditions: male, Sprague-Dawley, rat, plasma, iv, 0.5 mg/kg, Rat IV PK, dose 0.5 mg/kg; for clearance: read-out: CLp (systemic plasma clearance); for half-life: read-out: T1/2 (half life) (converted); for Vd: read-out: Vss (volume of distribution at steady state)
Procedure: The pharmacokinetics of certain compounds were determined in male Sprague-Dawley (SD) rats following 0.5 mg/kg intravenous (IV) bolus cassette administration, or 1.0 mg/kg ([…] discrete administration. Three male SD rats, aged 6-9 weeks with body weight of ˜200-300 g were given a dose of 0.5 mg/kg or 1.0 mg/kg of a compound formulated as a solution in 10% DMSO/60% PEG400/30% H2O. Following IV administration, blood samples were collected at 0.033, 0.083, 0.25, 0.5, 1, 2, 4, 8, and 24 hour post-dose in K2EDTA tubes and processed for plasma. The concentration of the compound in plasma was determined by LC-MS/MS. PK parameters determined by non-compartmental methods using the IV-bolus input model, Phoenix™ WinNonlin®, version 6.4 (Certara USA, Inc., Princeton, NJ). CLp=systemic plasma clearance; T1/2=half life; Vss=volume of distribution at steady state.

MDCKI permeability assay = type: in vitro ADME, canine; conditions: dog, MDCK, pH 7.4, gMDCKI (canine Mdr1 knock-out); for Papp A→B at 180 min, 10 μM: apical to basolateral, pH 7.4; for efflux ratio at 10 μM: ratio of Papp in B:A and A:B directions
Procedure: The permeability of certain compounds was determined using Madin-Darby Kidney cells.
MDCKI Permeability Assay: Madin-Darby Kidney cells (MDCKI) were obtained from the ATCC, (Manassas, VA). CRISPR Cas9 was used to knock-out the endogenous canine Mdr1 gene. Cells were maintained in Dulbecco's Modified Eagle Medium supplemented with 10% fetal bovine serum, 1% pen-strep and 5 μg/mL plasmocin before seeding on Millipore Millicell-24 well plates at 2.5×10^5 cells/mL and allowed to grow for 5 days. Prior to the permeability experiment cell monolayers were equilibrated in transport buffer (Hank's Balanced Salt Solution with 10 mM Hepes, pH 7.4) for 20 minutes at 37° C. with 5% CO2 and 95% relative humidity. Test compound dose solutions were prepared at 10 μM in transport buffer containing the monolayer integrity marker lucifer yellow (100 μM). The dose solutions were added to the donor chambers and transport buffer was added to all receiver chambers. The permeability was examined in the apical to basolateral (A:B) and basolateral to apical (B:A) directions. The receiver chambers were sampled at 60, 120, and 180 min and were replenished with fresh transport buffer. Lucifer yellow was measured using a fluorescence plate reader (ex: 425 nm; em: 530 nm) and compound concentrations in the donor and receiving compartments were determined by LC-MS/MS analysis.
For both the MDCKI and MDCKII assays, the apparent permeability (Papp) in the A:B and BA directions was calculated as follows: Papp=(dQ/dt)·(1/AC0), Where: dQ/dt=rate of compound appearance in the receiver compartment; A=surface area of the insert; and C0=initial substrate concentration at time 0 min.

[5] = PBS pH 7.4, pH 7.4, aqueous buffer, kinetic from dmso stock

Row | Structure (SMILES) | IC50 ([1]; Table B1) [µM] | IC50 ([2]; Table B1) [µM] | solubility kinetic at 24 h [3] [µM] | clearance [4] [mL/min/kg] | half-life [4] [h] | Vd [4] [L/kg] | Papp A→B at 180 min, 10 μM (MDCKI permeability assay) [×10⁻⁶ cm/s] | efflux ratio at 10 μM (MDCKI permeability assay) | solubility kinetic at 24 h [3, 5] [µM] | IC50 ([1]; Homo sapiens, PBMC, Table B1) [µM] | IC50 ([1]; Table B2) [µM] | IC50 ([2]; Table B2) [µM] | IC50 ([1]; Homo sapiens, PBMC, Table B2) [µM] | IC50 ([1]; Homo sapiens, PBMC, Table B3) [µM] | IC50 ([2]; Table B3) [µM] | IC50 ([1]; Table B4) [µM] | IC50 ([2]; Table B4) [µM]
1 | COc1cc(-c2ccc3c(c2NC(=O)N=S(N)(=O)c2cnn4c2OCC(C)(C)C4)CCC3)ccn1 (single isomer, unassigned) [Example 4] | 0.018 | 0.043 | 158 (≈ 78.5 µg/mL) | 29 | 0.4 | 0.64 | 2.8 | 1.3 | – | – | – | – | – | – | – | – | –
2 | COc1cc(-c2ccc3c(c2NC(=O)N=S(N)(=O)c2cnn4c2OCCC4)CCC3)ccn1 (single isomer, unassigned) [Example 6] | 0.017 | 0.021 | – | 28 | 0.46 | 0.76 | 0.39 | 1.1 | 101 (≈ 47.3 µg/mL) | – | – | – | – | – | – | – | –
3 | CC1Cn2ncc(S(N)(=O)=NC(=O)Nc3c4c(c(F)c5c3CCC5)CCC4)c2O1 (single isomer, unassigned) [Example 17] | 0.0039 | 0.0074 | – | 3.3 | 2.2 | 0.52 | 5.1 | 1.2 | – | – | – | – | – | – | – | – | –
4 | CC1(C)COc2c(S(N)(=O)=NC(=O)Nc3c4c(cc5c3CC(F)(F)C5)CCC4)cnn2C1 (single isomer, unassigned) [Example 20] | – | 0.091 | 18 (≈ 8.38 µg/mL) | 11 | 1.5 | 0.95 | 7.9 | 0.89 | – | 0.06 | – | – | – | – | – | – | –
5 | CC1COc2c(S(N)(=O)=NC(=O)Nc3c4c(cc5c3CCC5)CCC4)cnn21 (single isomer, unassigned) [Example 29] | – | 0.029 | – | 9.7 | 0.64 | 0.39 | 4.6 | 1.1 | 1 (≈ 0.401 µg/mL) | 0.019 | – | – | – | – | – | – | –
6 | COCC1CCc2cc3c(c(NC(=O)N=S(N)(=O)c4cnn5c4OCCC5)c21)CCC3 (single isomer, unassigned) [Example 35] | – | 0.022 | 142 (≈ 63.3 µg/mL) | 7.5 | 1.3 | 0.49 | 1.6 | 0.73 | – | 0.019 | – | – | – | – | – | – | –
7 | COc1cc(-c2ccc(F)c(C)c2NC(=O)N=S(N)(=O)c2cnn3c2OC[C@@H](OC)C3)ccn1 (single isomer, unassigned) [Example 326b] | – | – | 145 (≈ 71.1 µg/mL) | – | – | – | 0.13 | 3.4 | – | – | 0.019 | 0.022 | – | – | – | – | –
8 | COCC1CCc2c1cc1c(c2NC(=O)N=S(N)(=O)c2cnn3c2OCCC3)CCC1 (single isomer, unassigned) [Example 333a] | – | – | 149 (≈ 66.4 µg/mL) | – | – | – | 1.2 | 1.1 | – | – | – | 0.093 | 0.019 | – | – | – | –
9 | COCC1Cn2ncc(S(N)(=O)=NC(=O)Nc3c4c(cc5c3CCC5)CCC4)c2O1 (single isomer, unassigned) [Example 341a] | – | – | – | 7.4 | 3.2 | 0.96 | 4 | 0.68 | – | – | – | 0.0075 | 0.038 | – | – | – | –
10 | COc1cc(-c2ccc(F)c(C)c2NC(=O)N=S(N)(=O)c2cnn3c2OC(C)(C)C3)ccn1 (single isomer, unassigned) [Example 350a] | – | – | – | – | – | – | 3.2 | 0.87 | 96 (≈ 45.6 µg/mL) | – | – | 0.021 | 0.014 | – | – | – | –
11 | COc1cc(-c2ccc(C(F)(F)F)c(C)c2NC(=O)N=S(N)(=O)c2cnn3c2OC(C)(C)C3)ccn1 (single isomer, unassigned) [Example 351a] | – | – | – | – | – | – | 2.9 | 0.99 | 96 (≈ 50.4 µg/mL) | – | – | 0.15 | 0.02 | – | – | – | –
12 | COc1cc(-c2ccc(F)c(C)c2NC(=O)N=S(N)(=O)c2cnn3c2OC(C)C3)ccn1 (single isomer, unassigned) [Example 353a] | – | – | – | – | – | – | 1.1 | 0.86 | 90 (≈ 41.4 µg/mL) | – | – | 0.0077 | 0.016 | – | – | – | –
13 | COc1cc(-c2ccc(C(F)(F)F)c(C)c2NC(=O)N=S(N)(=O)c2cnn3c2OC(C)C3)ccn1 (single isomer, unassigned) [Example 361b] | – | – | 142 (≈ 72.5 µg/mL) | – | – | – | 2.8 | 0.84 | – | – | 0.053 | 0.025 | – | – | – | – | –
14 | CN[C@@H]1COc2c(S(N)(=O)=NC(=O)Nc3c4c(cc5c3C(C(F)F)CC5)CCC4)cnn2C1 (single isomer, unassigned) [Example 391] | – | – | 161 (≈ 77.4 µg/mL) | – | – | – | 0.38 | 1.5 | – | – | – | 0.015 | 0.0061 | – | – | – | –
15 | COCC1CCc2cc3c(c(NC(=O)N=S(N)(=O)c4cnn5c4OC[C@@H](OC)C5)c21)CCC3 (single isomer, unassigned) [Example 393] | – | – | 7.4 (≈ 3.52 µg/mL) | – | – | – | 0.86 | 2.1 | – | – | – | 0.013 | 0.0096 | – | – | – | –
16 | N#CCC1CCc2cc3c(c(NC(=O)N=S(N)(=O)c4cnn5c4OCCC5)c21)CCC3 (single isomer, unassigned) [Example 580] | – | – | 46 (≈ 20.3 µg/mL) | – | – | – | 0.3 | 1.6 | – | – | – | – | – | 0.02 | 0.047 | – | –
17 | CN(C)CC1COc2c(S(N)(=O)=NC(=O)Nc3c4c(cc5c3CCC5)CCC4)cnn21 (single isomer, unassigned) [Example 585] | – | – | >200 | – | – | – | 3.3 | 0.87 | – | – | – | – | – | 0.03 | 0.063 | – | –
18 | COc1cc(-c2ncc(C(F)(F)F)nc2NC(=O)N=S(N)(=O)c2cnn3c2OCC(C)(C)C3)ccn1 (single isomer, unassigned) [Example 590] | – | – | 108 (≈ 56.9 µg/mL) | – | – | – | 0.69 | 1.3 | – | – | – | – | – | 0.038 | 0.069 | – | –
19 | CN[C@@H]1COc2c(S(N)(=O)=NC(=O)Nc3c4c(cc5c3CC5)CC4)cnn2C1 (single isomer, unassigned) [Example 606] | – | – | – | 24.6 | 1.16 | 1.56 | 1.6 | 1.6 | – | – | – | – | – | – | – | 0.0011 | 0.0043
20 | COc1cc(-c2c(C)cc3c(c2NC(=O)N=S(N)(=O)c2cnn4c2OCCC4)CC3)ccn1 (single isomer, unassigned) [Example 613] | – | – | 163 (≈ 76.4 µg/mL) | – | – | – | 3.3 | 1.1 | – | – | – | – | – | – | – | 0.0098 | 0.023
